ChEMBL document CHEMBL1201862, “PubChem BioAssay data set” (2004)
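Cultured in 96-well plates, cells were exposed to test compound for 48 hours across five concentrations. At the GI50, growth is halved.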 Calls of active or inactive are those of the source. Rule as the data show it: active = GI50 up to about 1.1 µM and inactive = higher.

Legend:
Test in all cases: NCI-60 cell line screen, 48 h
786-0 = system: 786-0
A498 = system: A498
A549 = system: A549
ACHN = system: ACHN
CAKI-1 = system: CAKI-1
CCRF-CEM = system: CCRF-CEM
COLO 205 = system: COLO 205
DLD-1 = system: DLD-1
DMS-114 = system: DMS-114
DMS-273 = system: DMS-273
EKVX = system: EKVX
HCC 2998 = system: HCC 2998
HCT-116 = system: HCT-116
HCT-15 = system: HCT-15
HL-60 = system: HL-60
HOP-18 = system: HOP-18
HOP-62 = system: HOP-62
HOP-92 = system: HOP-92
HT-29 = system: HT-29
IGROV-1 = system: IGROV-1
K562 = system: K562
KM-20L2 = system: KM-20L2
KM12 = system: KM12
LOX IMVI = system: LOX IMVI
LXFL 529 = system: LXFL 529
M14 = system: M14
M19-MEL = system: M19-MEL
MOLT-4 = system: MOLT-4
Malme-3M = system: Malme-3M
NCI-H226 = system: NCI-H226
NCI-H23 = system: NCI-H23
NCI-H460 = system: NCI-H460
NCI-H522 = system: NCI-H522
OVCAR-3 = system: OVCAR-3
OVCAR-4 = system: OVCAR-4
OVCAR-5 = system: OVCAR-5
OVCAR-8 = system: OVCAR-8
RPMI-8226 = system: RPMI-8226
RXF 393 = system: RXF 393
SF-268 = system: SF-268
SF-295 = system: SF-295
SF-539 = system: SF-539
SK-MEL-28 = system: SK-MEL-28
SK-MEL-2 = system: SK-MEL-2
SK-MEL-5 = system: SK-MEL-5
SK-OV-3 = system: SK-OV-3
SN12C = system: SN12C
SNB-19 = system: SNB-19
SNB-75 = system: SNB-75
SNB-78 = system: SNB-78
SR = system: SR
TK-10 = system: TK-10
U-251 = system: U-251
UACC-257 = system: UACC-257
UACC-62 = system: UACC-62
UO-31 = system: UO-31
XF498 = system: XF498
BT-549 = system: BT-549
DU-145 = system: DU-145
Hs-578T = system: Hs-578T
MCF7 = system: MCF7
MDA-MB-231 = system: MDA-MB-231
MDA-MB-435 = system: MDA-MB-435
MDA-N = system: MDA-N
NCI/ADR-RES = system: NCI/ADR-RES
PC-3 = system: PC-3
SW-620 = system: SW-620
T47D = system: T47D

`CC#CC(OCC)(OCC)OCC` was tested, and the GI50 (786-0) was > 100 µM (inactive), the GI50 (A498) was > 100 µM (inactive) and the GI50 (A549) was > 100 µM (inactive). For the same molecule, the GI50 (ACHN) was > 100 µM (inactive), the GI50 (CAKI-1) was > 100 µM (inactive) and the GI50 (CCRF-CEM) was > 100 µM (inactive). The GI50 (COLO 205) was 57.1 µM (inactive), the GI50 (DLD-1) was > 100 µM (inactive) and the GI50 (DMS-114) was 25.8 µM (inactive). The GI50 (DMS-273) was 20.6 µM (inactive), the GI50 (EKVX) was > 100 µM (inactive) and the GI50 (HCC 2998) was > 100 µM (inactive). The GI50 (HCT-116) was > 100 µM (inactive), the GI50 (HCT-15) was 39.1 µM and the GI50 (HL-60) was > 100 µM (inactive). For the same molecule, the GI50 (HOP-18) was > 100 µM (inactive), the GI50 (HOP-62) was > 100 µM (inactive) and the GI50 (HOP-92) was > 100 µM (inactive). The GI50 (HT-29) was > 100 µM (inactive), the GI50 (IGROV-1) was > 100 µM (inactive) and the GI50 (K562) was > 100 µM (inactive). The GI50 (KM-20L2) was > 100 µM (inactive), the GI50 (KM12) was > 100 µM (inactive) and the GI50 (LOX IMVI) was 18.9 µM (inactive). The GI50 (LXFL 529) was > 100 µM (inactive), the GI50 (M14) was > 100 µM (inactive) and the GI50 (M19-MEL) was > 100 µM (inactive). For the same molecule, the GI50 (MOLT-4) was > 100 µM (inactive), the GI50 (Malme-3M) was > 100 µM (inactive) and the GI50 (NCI-H226) was > 100 µM (inactive). For the same molecule, the GI50 (NCI-H23) was > 100 µM (inactive), the GI50 (NCI-H460) was 81.8 µM (inactive) and the GI50 (NCI-H522) was 53.2 µM (inactive). The GI50 (OVCAR-3) was > 100 µM (inactive), the GI50 (OVCAR-4) was > 100 µM (inactive) and the GI50 (OVCAR-5) was > 100 µM (inactive). For the same molecule, the GI50 (OVCAR-8) was > 100 µM (inactive), the GI50 (RPMI-8226) was > 100 µM (inactive) and the GI50 (RXF 393) was > 100 µM (inactive). For the same molecule, the GI50 (SF-268) was > 100 µM (inactive), the GI50 (SF-295) was > 100 µM (inactive) and the GI50 (SF-539) was > 100 µM (inactive). The GI50 (SK-MEL-28) was > 100 µM (inactive), the GI50 (SK-MEL-2) was > 100 µM (inactive) and the GI50 (SK-MEL-5) was > 100 µM (inactive). For the same molecule, the GI50 (SK-OV-3) was > 100 µM (inactive), the GI50 (SN12C) was > 100 µM (inactive) and the GI50 (SNB-19) was > 100 µM (inactive). The GI50 (SNB-75) was > 100 µM (inactive), the GI50 (SNB-78) was > 100 µM (inactive) and the GI50 (SR) was > 100 µM (inactive). For the same molecule, the GI50 (TK-10) was > 100 µM (inactive), the GI50 (U-251) was > 100 µM (inactive) and the GI50 (UACC-257) was > 100 µM (inactive). The GI50 (UACC-62) was > 100 µM (inactive), the GI50 (UO-31) was > 100 µM (inactive) and the GI50 (XF498) was > 100 µM (inactive).
For `O=S(=O)(O)c1cc(/N=N/c2cc(S(=O)(=O)O)c3ccccc3c2O)ccc1/C=C/c1ccc(/N=N/c2cc(S(=O)(=O)O)c3ccccc3c2O)cc1S(=O)(=O)O`, the GI50 (786-0) was > 684 µM (inactive), the GI50 (A498) was > 100 µM (inactive) and the GI50 (A549) was > 480 µM (inactive). The GI50 (ACHN) was > 483 µM (inactive), the GI50 (BT-549) was 284 µM (inactive) and the GI50 (CAKI-1) was > 574 µM (inactive). The GI50 (CCRF-CEM) was 20.6 µM (inactive), the GI50 (DLD-1) was > 100 µM (inactive) and the GI50 (DMS-114) was > 100 µM (inactive). For the same molecule, the GI50 (DMS-273) was > 83 µM (inactive), the GI50 (DU-145) was 303 µM (inactive) and the GI50 (EKVX) was > 399 µM (inactive). The GI50 (HCC 2998) was > 100 µM (inactive), the GI50 (HCT-116) was > 213 µM (inactive) and the GI50 (HCT-15) was 98.6 µM. The GI50 (HL-60) was 18.2 µM (inactive), the GI50 (HOP-18) was > 100 µM (inactive) and the GI50 (HOP-62) was > 668 µM (inactive). For the same molecule, the GI50 (HOP-92) was > 80.9 µM (inactive), the GI50 (HT-29) was > 457 µM (inactive) and the GI50 (Hs-578T) was 499 µM (inactive). For the same molecule, the GI50 (IGROV-1) was > 399 µM (inactive), the GI50 (K562) was 30.1 µM (inactive) and the GI50 (KM-20L2) was > 100 µM (inactive). For the same molecule, the GI50 (LOX IMVI) was > 305 µM (inactive), the GI50 (LXFL 529) was > 1000 µM (inactive) and the GI50 (M14) was 131 µM (inactive). For the same molecule, the GI50 (M19-MEL) was > 100 µM (inactive), the GI50 (MCF7) was 310 µM (inactive) and the GI50 (MDA-MB-231) was 27.3 µM (inactive). The GI50 (MDA-MB-435) was 111 µM (inactive), the GI50 (MDA-N) was 151 µM (inactive) and the GI50 (MOLT-4) was 22.8 µM (inactive). For the same molecule, the GI50 (Malme-3M) was > 333 µM (inactive), the GI50 (NCI-H226) was 270 µM (inactive) and the GI50 (NCI-H23) was > 537 µM (inactive). The GI50 (NCI-H460) was > 437 µM (inactive), the GI50 (NCI-H522) was > 492 µM (inactive) and the GI50 (NCI/ADR-RES) was 427 µM (inactive). The GI50 (OVCAR-3) was > 553 µM (inactive), the GI50 (OVCAR-4) was > 86.5 µM (inactive) and the GI50 (OVCAR-5) was 146 µM (inactive). For the same molecule, the GI50 (OVCAR-8) was > 755 µM (inactive), the GI50 (PC-3) was 150 µM (inactive) and the GI50 (RXF 393) was > 771 µM (inactive). For the same molecule, the GI50 (SF-268) was > 800 µM (inactive), the GI50 (SF-295) was > 462 µM (inactive) and the GI50 (SF-539) was > 386 µM (inactive). The GI50 (SK-MEL-28) was 594 µM (inactive), the GI50 (SK-MEL-2) was > 371 µM (inactive) and the GI50 (SK-MEL-5) was 86.7 µM (inactive). For the same molecule, the GI50 (SK-OV-3) was > 630 µM (inactive), the GI50 (SN12C) was > 743 µM (inactive) and the GI50 (SNB-19) was > 733 µM (inactive). The GI50 (SNB-75) was > 458 µM (inactive), the GI50 (SNB-78) was > 100 µM (inactive) and the GI50 (SR) was 27 µM (inactive). The GI50 (SW-620) was > 605 µM (inactive), the GI50 (T47D) was 497 µM (inactive) and the GI50 (TK-10) was 24.9 µM (inactive). The GI50 (U-251) was > 716 µM (inactive), the GI50 (UACC-257) was > 291 µM (inactive) and the GI50 (UACC-62) was > 312 µM (inactive). For the same molecule, the GI50 (UO-31) was > 367 µM (inactive) and the GI50 (XF498) was > 100 µM (inactive).
